≈ marks a conversion by molar mass, not a printed value. Structures can show the parent of a compound that is named as a salt.
How the values were obtained:
[1] = tested on: S. aureus 133; assay: MIC, liquid dilution test (96-well microtitre plate); format: cell-based; conditions: 18-24 h
Method: (§1) The minimum inhibitory concentration (MIC) is the minimum concentration of an antibiotic with which the growth of a test microbe is inhibited over 18-24 h. The inhibitor concentration can in these cases be determined by standard microbiological methods (see, for example, The National Committee for Clinical Laboratory Standards. Methods for dilution antimicrobial susceptibility tests for bacteria that grow aerobically; approved standard-fifth edition. NCCLS document M7-A5 [ISBN 1-56238-394-9]. NCCLS, 940 West Valley Road, Suite 1400, Wayne, Pa. 19087-1898 USA, 2000). The MIC of the compounds of the invention is determined in the liquid dilution test on the 96-well microtitre plate scale. The bacterial microbes are cultivated in a minimal medium (18.5 mM Na2HPO4, 5.7 mM KH2PO4, 9.3 mM NH4Cl, 2.8 mM MgSO4, 17.1 mM NaCl, 0.033 μg/ml thiamine hydrochloride, 1.2 μg/ml nicotinic acid, 0.003 μg/ml biotin, 1% glucose, 25 μg/ml of each proteinogenic amino acid with the exception of phenylalanine; [H.-P. Kroll; unpublished]) with addition of 0.4% BH broth (test medium). In the case of Enterococcus faecium L4001, heat-inactivated fetal calf serum (FCS; GibcoBRL, Germany) is added to the test medium in a final concentration of 10%. Overnight cultures of the test microbes are diluted to an OD578 of 0.001(to 0.01 in the case of enterococci) in fresh test medium, and incubated 1:1 with dilutions of the test substances (1:2 dilution steps) in test medium (200 μl final volume). The cultures are incubated at 37° C. for 18-24 hours; enterococci in the presence of 5% CO2.
(§2) The lowest substance concentration in each case at which bacterial growth was no longer visible is defined as the MIC. […] The compounds show a graded antibacterial effect against most of the test microbes.

[2] = tested on: S. aureus T17; assay: as above; format: cell-based; conditions: for MIC: Staphylococcus aureus, T17, read-out: MIC S. aureus T17
Method: as §1, §2
The S. aureus strain T17 is isolated in vivo. CFW1 mice are infected intraperitoneally with 4×10^7 S. aureus 133 cells per mouse. 0.5 h after the infection, the animals are treated intravenously with 50 mg/kg biphenomycin B. The kidneys are removed from the surviving animals on day 3 after the infection. After homogenization of the organs, the homogenates are plated out as described for RN4220Bi^R on antibiotic-free and antibiotic-containing agar plates and incubated at 37° C. overnight. […] About 20 of these colonies are tested for the biphenomycin B MIC, and a colony with an MIC of >50 μM is selected for further cultivation, and the strain is referred to as T17.

[3] = tested on: E. faecium L4001; assay: as above; format: cell-based, Enterococcus faecium
Method: as §1, §2

[4] = target: S. aureus 133 Translation; assay: S. aureus in vitro transcription-translation assay (firefly luciferase, S30 extract); format: biochemical
Source text: In order to construct a reporter plasmid which can be used in an in vitro transcription -translation assay from S. aureus the plasmid pBESTluc (Promega Corporation, USA) is used. The E. coli tac promoter present in this plasmid in front of the firefly luciferase is replaced by the capA1 promoter with appropriate Shine-Dalgarno sequence from S. aureus. The primers CAPFor 5′-[…] -[…]-3′ and CAPRev 5′-[…]-3′ are used for this. The primer CAPFor contains the capA1 promoter, the ribosome binding site and the 5′ region of the luciferase gene. After PCR using pBESTluc as template it is possible to isolate a PCR product which contains the firefly luciferase gene with the fused capA1 promoter. This is, after restriction with ClaI and HindIII, ligated into the vector pBESTluc which has likewise been digested with ClaI and HindIII. The resulting plasmid pla can be replicated in E. coli and be used as template in the S. aureus in vitro transcription-translation assay.
Six liters of BHI medium are inoculated with a 250 ml overnight culture of a S. aureus strain and allowed to grow at 37° C. until the OD600 nm is 2-4. The cells are harvested by centrifugation and washed in 500 ml of cold buffer A (10 mM Tris acetate, pH 8.0, 14 mM magnesium acetate, 1 mM DTT, 1 M KCl). After renewed centrifugation, the cells are washed in 250 ml of cold buffer A with 50 mM KCl, and the resulting pellets are frozen at −20° C. for 60 min. The pellets are thawed on ice in 30 to 60 min and taken up to a total volume of 99 ml in buffer B (10 mM Tris acetate, pH 8.0, 20 mM magnesium acetate, 1 mM DTT, 50 mM KCl). 1.5 ml lysostaphin (0.8 mg/ml) in buffer B are introduced into 3 precooled centrifuge cups each and each mixed with 33 ml of the cell suspension. The samples are incubated at 37° C., shaking occasionally, for 45 to 60 min, before 150 μl of a 0.5 M DTT solution are added. The lysed cells are centrifuged at 30 000×g and 4° C. for 30 min. The cell pellet is taken up in buffer B and then centrifuged again under the same conditions, and the collected supernatants are combined. The supernatants are centrifuged again under the same conditions, and 0.25 volumes of buffer C (670 mM Tris acetate, pH 8.0, 20 mM magnesium acetate, 7 mM Na3 phosphoenolpyruvate, 7 mM DTT, 5.5 mM ATP, 70 μM amino acids (complete from Promega), 75 μg of pyruvate kinase (Sigma, Germany)/ml are added to the upper ⅔ of the supernatant. The samples are incubated at 37° C. for 30 min. The supernatants are dialysed against 21 of dialysis buffer (10 mM Tris acetate, pH 8.0, 14 mM magnesium acetate, 1 mM DTT, 60 mM potassium acetate) in a dialysis tube with a 3500 Da cut-off with one buffer change at 4° C. overnight. The dialysate is concentrated to a protein concentration of about 10 mg/ml by covering the dialysis tube with cold PEG 8000 powder (Sigma, Germany) at 4° C. The S30 extracts can be stored in aliquots at −70° C.
Inhibition of protein biosynthesis of the compounds can be shown in an in vitro transcription-translation assay. The assay is based on the cell-free transcription and translation of firefly luciferase using the reporter plasmid pla as template and cell-free S30 extracts obtained from S. aureus. The activity of the resulting luciferase can be detected by luminescence measurement.
The amount of S30 extract or plasmid plato be employed must be tested anew for each preparation in order to ensure an optimal concentration in the assay. 3 μl of the substance to be tested, dissolved in 5% DMSO, are introduced into an MTP. Then 10 μl of a suitably concentrated plasmid solution p1 a are added. Then 46 μl of a mixture of 23 μl of premix (500 mM Potassium acetate, 87.5 mM Tris acetate, pH 8.0, 67.5 mM ammonium acetate, 5 mM DTT, 50 μg of folic acid/ml, 87.5 mg of PEG 8000/ml, 5 mM ATP, 1.25 mM each NTP, 20 μM each amino acid, 50 mM PEP (Na3 salt), 2.5 mM cAMP, 250 μg each E. coli tRNA/ml) and 23 μl of a suitable amount of S. aureus S30 extract are added and mixed. […]

[5] = tested on: S. aureus 133; assay: MIC, alternative method, agar dilution test; format: cell-based
Method: (§3) The minimum inhibitory concentration (MIC) is the minimum concentration of an antibiotic with which the growth of a test microbe is inhibited over 18-24 h. The inhibitor concentration can be determined by standard microbiological methods using modified medium in an agar dilution test (see, for example, the National Committee for Clinical Laboratory Standards. Methods for dilution antimicrobial susceptibility tests for bacteria that grow aerobically; approved standard-fifth edition. NCCLS document M7-A5 [ISBN 1-56238-394-9]. NCCLS, 940 West Valley Road, Suite 1400, Wayne, PA. 19087-1898 USA, 2000). The bacterial microbes are cultivated on 1.5% agar plates containing 20% defibrinated horse blood. The test microbes, which are incubated on Columbia blood agar plates (Becton-Dickinson) overnight, are diluted in PBS, adjusted to a microbe count of about 5×10^5 microbes/ml and placed as drops (1-3 μl) on test plates. The test substances contain various dilutions of the test substances (1:2 dilution stages). The cultures are incubated at 37° C. in the presence of 5% CO2 for 18-24 hours.
(§4) The lowest concentration of each substance at which no visible bacterial growth occurs is defined as the MIC and is reported in μg/ml.

[6] = tested on: S. aureus T17; assay: MIC, alternative method, agar dilution test; format: cell-based; conditions: for MIC: Staphylococcus aureus
Method: as §3, §4

[7] = tested on: E. faecium L4001; assay: MIC, alternative method, agar dilution test; format: cell-based, Enterococcus faecium; conditions: for MIC: Enterococcus faecium
Method: as §3, §4

[8] = tested on: S. aureus RN4220Bi^R; assay: Biphenomycin B MIC of the isolated resistant colony; format: cell-based; conditions: colony isolated in vitro
Method: The S. aureus strain RN422OBi^R is isolated in vitro. […] Whereas about 1×10^7 cells grow on the antibiotic-free plate, about 100 colonies grow on the antibiotic-containing plate, corresponding to a resistance rate of 1×10^−5. Some of the colonies grown on the antibiotic-containing plate are tested for the biphenomycin B MIC. One colony with an MIC of >50 μM is selected for further use, and the strain is referred to as RN4220Bi^R.

[9] = agar dilution, 1.5% agar with 20% defibrinated horse blood, 5% CO2, 18-24 h
[10] = Staphylococcus aureus, 133, minimal medium + 0.4% BH broth
[11] = Enterococcus faecium, L4001, liquid dilution, test medium with 10% FCS, 5% CO2, 18-24 h, read-out: MIC E. faecium L4001
[12] = Staphylococcus aureus, 133, agar dilution, 1.5% agar with 20% defibrinated horse blood, 5% CO2, 18-24 h, read-out: MIC S. aureus 133
[13] = T17, agar dilution, 1.5% agar with 20% defibrinated horse blood, 5% CO2, 18-24 h, read-out: MIC S. aureus T17
[14] = L4001, agar dilution, 1.5% agar with 20% defibrinated horse blood, 5% CO2, 18-24 h, read-out: MIC E. faecium L4001

SMILES: NC[C@H](O)C[C@@H]1NC(=O)[C@@H](N)Cc2cc(ccc2O)-c2ccc(O)c(c2)C[C@@H](C(=O)O)NC1=O [Biphenomycin B, biphenomycin B, reference compound]
- MIC ([1]; minimal medium + 0.4% BH broth): 0.1 µM
- MIC, selected colony T17 ([2]; colony isolated in vivo from mouse kidney): > 50 µM
- MIC S. aureus T17 ([2]; liquid dilution, biphenomycin-resistant strain, 18-24 h): >25 µM
- MIC ([3]; liquid dilution, test medium with 10% FCS, 5% CO2, 18-24 h, read-out: MIC E. faecium L4001): >25 µM
- IC50 ([4]; Table A): 1500 nM
- IC50 ([4]; Table B): 1500 nM
- MIC S. aureus 133 [5, 9]: <0.03 µg/mL
- MIC S. aureus T17 [6, 9]: >32 µg/mL
- MIC E. faecium L4001 [7, 9]: 0.5 µg/mL (≈ 1.06 µM)
- MIC, selected colony RN4220Bi^R [8]: > 50 µM

SMILES: CN1C(=O)[C@H](C[C@@H](O)CN)NC(=O)[C@@H](N)Cc2cc(ccc2O)-c2ccc(Cl)c(c2)C[C@H]1C(=O)NCC(O)CN (stereo partly drawn) [Example 9]
- MIC [1, 10]: 0.35 µM
- MIC [2]: 0.7 µM (≈ 0.404 µg/mL)
- MIC [3, 11]: 11 µM (≈ 6.35 µg/mL)
- IC50 ([4]; Table A): 300 nM
- IC50 ([4]; Table B): 300 nM
- MIC [5, 12]: 2 µg/mL (≈ 3.47 µM)
- MIC [6, 13]: 4 µg/mL (≈ 6.93 µM)
- MIC [7, 14]: 16 µg/mL (≈ 27.7 µM)

SMILES: NCCNC(=O)[C@@H]1Cc2cc(ccc2F)-c2ccc(O)c(c2)C[C@H](N)C(=O)N[C@@H](C[C@@H](O)CN)C(=O)N1 [Example 12]
- MIC [1, 10]: 0.16 µM
- MIC [2]: 0.6 µM (≈ 0.31 µg/mL)
- MIC [3, 11]: 20 µM (≈ 10.3 µg/mL)
- IC50 ([4]; Table A): 800 nM
- IC50 ([4]; Table B): 800 nM
- MIC [5, 12]: 1 µg/mL (≈ 1.94 µM)
- MIC [6, 13]: 1 µg/mL (≈ 1.94 µM)
- MIC [7, 14]: 16 µg/mL (≈ 31 µM)

SMILES: NCCNC(=O)[C@@H]1Cc2cccc(c2)-c2ccc(O)c(c2)C[C@H](N)C(=O)N[C@@H](C[C@@H](O)CN)C(=O)N1 [Example 36, (8S,11S,14S)-14-Amino-N-(2-aminoethyl)-11-[(2R) -3-amino-2-hydroxypropyl]-17-hydroxy-10,13-dioxo-9,12-diazatricyclo-[14.3.1.1^2,6]henicosa-1(20),2(21),3,5,16,18-hexaene-8-carboxamide tri(hydrotrifluoroacetate)]
- MIC [1, 10]: 0.4 µM
- MIC [2]: 0.8 µM (≈ 0.399 µg/mL)
- MIC ([3]; Enterococcus faecium, L4001, read-out: MIC E. faecium L4001): > 25 µM
- IC50 ([4]; Table A): 360 nM
- IC50 ([4]; Table B): 360 nM
- MIC [5, 12]: 1 µg/mL (≈ 2.01 µM)
- MIC [6, 13]: 2 µg/mL (≈ 4.01 µM)
- MIC [7, 14]: 8 µg/mL (≈ 16 µM)

SMILES: CN1C(=O)[C@H](CCCN)NC(=O)[C@@H](N)Cc2cc(ccc2O)-c2ccc(Cl)c(c2)C[C@H]1C(=O)NCCN(CCN)CCN [Example 42, (8S,11S,14S)-14-Amino-11-(3-aminopropyl)-N-{2-[bis(2-aminoethyl)amino]ethyl}-5-chloro-17-hydroxy-9-methyl-10,13-dioxo-9,12-diazatricyclo[14.3.1.1^2,6]henicosa-1(20),2(21)3,5,16,18-hexaene-8-carboxamide penta(hydrotrifluoroacetate)]
- IC50 ([4]; Table B): 80 nM
- MIC [5, 12]: 2 µg/mL (≈ 3.24 µM)
- MIC [6, 13]: 2 µg/mL (≈ 3.24 µM)
- MIC [7, 14]: 32 µg/mL (≈ 51.8 µM)

SMILES: NCCC[C@@H]1NC(=O)[C@@H](N)Cc2cc(ccc2O)-c2ccc(N)c(c2)C[C@@H](C(=O)NCCN)NC1=O [Example 43, (8S,11S,14S)-5,14-Diamino-N-(2-aminoethyl)-11-(3-aminopropyl)-17-hydroxy-10,13-dioxo-9,12-diazatricyclo[14.3.1.1^2,6]henicosa-1(20),2(21),3,5,16,18-hexaene-8-carboxamide tetrahydrochloride]
- IC50 ([4]; Table B): 900 nM
- MIC ([5]; Staphylococcus aureus, 133, read-out: MIC S. aureus 133): 2 µg/mL
- MIC ([6]; T17, read-out: MIC S. aureus T17): 4 µg/mL
- MIC ([7]; L4001, read-out: MIC E. faecium L4001): > 32 µg/mL

Reference: patent US7655643B2, “Antibacterial macrocycles with substituted biphenyl” (AiCuris GmbH & Co. KG, priority 2003, dated 2010)
